Measurements from PubChem BioAssay (NCI).
Values joined by “and” are separate entries in the source; they are usually repeats but may differ in a detail not shown here. Equal entries are not always repeated.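 Interpolation was linear, between the two tested concentrations surrounding the appropriate level; five concentrations were tested over 48 hours in 96-well plates. GI50 is the concentration that inhibits growth by half. TGI: total growth inhibition.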

Legend:
Assay in all cases: NCI-60 cell line screen, 48 h
[1] = test system: RXF 393 renal
[2] = test system: SR leukemia
[3] = test system: UACC-257 melanoma
[4] = test system: K-562 leukemia
[5] = test system: SF-268 CNS
[6] = test system: MDA-MB-435
[7] = test system: OVCAR-4 ovarian
[8] = test system: HT29 colon
[9] = test system: MCF7 breast
[10] = test system: OVCAR-5 ovarian

Structure (SMILES) | GI50 [1] | TGI [1] | GI50 [2] | TGI [2] [µM] | GI50 [3] | TGI [3] | GI50 [4] | TGI [4] | GI50 [5] | TGI [5] | GI50 [6] | TGI [6] | GI50 [7] | TGI [7] | GI50 [8] | TGI [8] | GI50 [9] | TGI [9] | GI50 [10] | TGI [10]
CCCCCCCCCCCCCCCCCC1=NC(C)(C)CN1CC(C)O (configuration not stated) | 14.2 µM | 31.9 µM | 2.75 µM | > 100 | 22.4 µM | 40.6 µM | 2.45 µM | 5.44 µM | 1.94 µM | 4.06 µM | 2.08 µM | 4.5 µM | 12.5 µM | 28.4 µM | 3.02 µM | 7.42 µM | 3.09 µM | 14.1 µM | 15.5 µM | 31.7 µM
CCOC(=O)Nc1nc2ccc(OC)cc2s1 | > 100 µM | > 100 µM | 8.14 µM | > 100 | > 100 µM | > 100 µM | > 100 µM | > 100 µM | > 100 µM | > 100 µM | 4.18 µM | > 100 µM | > 100 µM | > 100 µM | > 100 µM | > 100 µM | > 100 µM | > 100 µM | > 100 µM | > 100 µM
COc1cc(OC)c(C(=O)/C=C/c2cc3c(cc2OCc2ccccc2)OC(C)(C)CC3)cc1CC=C(C)C | 5.91 µM | 17.1 µM | 2.77 µM | 22.8 | 13.1 µM | > 25 µM | 4.26 µM | > 25 µM | 4.82 µM | 15.2 µM | 4.54 µM | 18.2 µM | 4.06 µM | 14.3 µM | 3.57 µM | 8.92 µM | 3.08 µM | 11.2 µM | 13.4 µM | > 25 µM
[C](#Cc1ccccc1)[Hg][C]#Cc1ccccc1 | 16.5 µM | 34.9 µM | 23.5 µM | > 100 | 22.5 µM | 41.6 µM | 13.2 µM | > 100 µM | 18.7 µM | 38 µM | 43.2 µM | > 100 µM | 18.6 µM | 45.8 µM | 14.1 µM | 40.9 µM | 10.4 µM | 56.9 µM | 63.1 µM | > 100 µM
COc1ccc2c(=O)cc(-c3ccccc3)[nH]c2c1 | 0.762 µM | – | 0.258 µM | – | 0.335 µM | > 100 µM | 0.439 µM | > 100 µM | 1.28 µM | > 100 µM | 0.18 µM | 0.523 µM | 3.28 µM | > 100 µM | 0.379 µM | > 100 µM | 0.387 µM | > 100 µM | 22.2 µM | > 100 µM
Cc1nc(-c2ccccc2)n2nc(NCCCN3CCOCC3)ncc12 | 6.75 µM | > 25 µM | > 25 µM | > 25 | > 25 µM | > 25 µM | > 25 µM | > 25 µM | > 25 µM | > 25 µM | > 25 µM | > 25 µM | 15.1 µM | > 25 µM | > 25 µM | > 25 µM | > 25 µM | > 25 µM | > 25 µM | > 25 µM
CC(C)c1cnn2c(NCc3ccccc3)cc(NC[C@H]3CCNC[C@@H]3O)nc12 | 0.352 µM and 1.03 µM | 1.09 µM and 2.83 µM | 0.0481 µM and 0.0623 µM | – | 0.656 µM and 0.716 µM | 4.78 µM and 5.18 µM | 0.409 µM and 0.571 µM | 11.3 µM and > 100 µM | 0.402 µM and 0.648 µM | 4.63 µM and 2.72 µM | 0.343 µM and 0.578 µM | 1.74 µM and 2.07 µM | 0.304 µM and 0.597 µM | 2.8 µM and 3.62 µM | 0.285 µM and 0.369 µM | 10.3 µM and 5.73 µM | 0.13 µM and 0.186 µM | 4.83 µM and 4.03 µM | 0.312 µM and 0.575 µM | 6.72 µM and 5.38 µM
O=S(=O)(NCCNc1nccc(-c2c(-c3ccc(F)c(O)c3)nc3sccn23)n1)c1ccc(F)cc1 | 2.17 µM | 5.46 µM | 1.34 µM | > 100 | 1.71 µM | 18.3 µM | 2.55 µM | > 100 µM | 4.71 µM | > 100 µM | 0.824 µM | 4.99 µM | 3.9 µM | 14.7 µM | 4.19 µM | 31.1 µM | 2.17 µM | 12.2 µM | 4.37 µM | 85.7 µM
COc1ccc(-c2ccncc2)cc1C(N)=O | > 25 µM | > 25 µM | > 25 µM | > 25 | > 25 µM | > 25 µM | > 25 µM | > 25 µM | > 25 µM | > 25 µM | > 25 µM | > 25 µM | > 25 µM | > 25 µM | > 25 µM | > 25 µM | > 25 µM | > 25 µM | > 25 µM | > 25 µM
